US10822376B2, “Biologically active peptides” (Baxalta Incorporated, priority 2008, dated 2020)

Legend:
FIX−/− mice = assay: Tail clip assay in FIX−/− mice (blood loss, survival); assay type: in vivo, mouse
FVIII−/− (E17) mice = assay: Tail clip assay in FVIII−/− mice (blood loss, survival)
Protocol: Groups of mice, typically 8-16 male and female exon 17 FVIII knockout mice with severe hemorrhagic diathesis, receive a single i.v. (tail vein), i.p. or s.c. bolus injection (10 ml/kg body weight). Two minutes before tail clip, animals are anesthetized by an i.p. application of 100 mg/kg ketamine and 5 mg/kg xylazine. Five minutes after i.v. and 60 minutes after i.p. or s.c. peptide or peptide derivative administration 0.5 cm of the tail tip is ablated. Blood dropping from the wound is collected in tubes containing 5.0 ml 0.04% NH3 for defined time periods, such as 0-2 minutes, 2-4 minutes, 4-6 minutes, 6-8, 8-10, 10-12, 12-14, 14-16, 16-20, 20-24, 24-28, 28-32, 32-42, 42-52 and 52-62 minutes. Blood cells in each tube are disrupted and hemoglobin is extracted by a three hour incubation period at room temperature followed by ultrasound treatment. The absorbance at 414 nm and 620 nm of the extracts is determined in micro titre plates. 620 nm is a reference wavelength and the A620 reading is subtracted from the A414 reading. The amount of blood in the extract corresponding to the subtracted reading is calculated from a standard curve created by known amounts of blood from wild type control mice, such as C57/BI6 mice. Parameters of the bleeding characteristics of the mice to be recorded are total blood loss, bleeding rate, bleeding time, 1 h, 2 h, 3 h, 4 h, 24 h and 48 h survival. Cumulative blood loss is calculated by summing up the amounts of blood for each time period. Data for the animals of a group are averaged and plotted against bleeding time. At each time point data sets for treatment and vehicle control groups are analysed by Student's t-test for statistical significance.
Parameters quantified were total blood loss, bleeding time, bleeding rate and survival.
Blood loss was monitored in the tail clip assay as described in the specific description for 62 minutes after tail clip. FVIII−/− mice were administered with rFVIII (Advate®) at 25, 50 or 100 U/kg i.v. or with vehicle alone. […] As a control, C57BI/6 mice were administered vehicle alone.
Vehicle was 5% DMSO, 5% Cremophor EL, 0.05% Tween 80 in water for injection.

Ac-RMKFDVWDLYFEIVW-NH2 [Peptide A01]
Survival vs vehicle alone (FIX−/− mice; 20 mg/kg i.v.): no significant difference | Mean volume of blood loss following tail clip compared to vehicle control (FIX−/− mice; 20 mg/kg i.v. five minutes before tail clip, any time points): not significantly different | Effect in FIX−/− mice (FIX−/− mice; conclusion): no effect | Survival vs vehicle control (FVIII−/− (E17) mice; 20 mg/kg i.v.): statistically significant longer survival | Mean volume of blood loss following tail clip compared to vehicle control (FVIII−/− (E17) mice; 20 mg/kg i.v. five minutes before tail clip, p<0.05 at most time points): significantly different | p of difference in mean blood loss vs vehicle (FVIII−/− (E17) mice; 20 mg/kg i.v., at 52 and 62 minutes after tail clip): < 0.01 | Survival (%) 2 hours (FVIII−/− (E17) mice; FVIII−/− mice, 20 mg/kg i.v. five minutes before tail clip, 2 hours (Table 26)): 56% | Survival (%) 4 hours (FVIII−/− (E17) mice; FVIII−/− mice, 20 mg/kg i.v. five minutes before tail clip, 4 hours (Table 26)): 25% | Survival (%) 24 hours (FVIII−/− (E17) mice; FVIII−/− mice, 20 mg/kg i.v. five minutes before tail clip, 24 hours (Table 26)): 6% | Survival (%) 48 hours (FVIII−/− (E17) mice; FVIII−/− mice, 20 mg/kg i.v. five minutes before tail clip, 48 hours (Table 26)): 0% | Survival (%) 2 hours (FVIII−/− (E17) mice; FVIII−/− mice, Exp 1, 20 mg/kg i.v., tail clip, 2 hours): 56% | Survival (%) 3 hours (FVIII−/− (E17) mice; FVIII−/− mice, Exp 1, 20 mg/kg i.v., tail clip): 44% | Survival (%) 4 hours (FVIII−/− (E17) mice; FVIII−/− mice, Exp 1, 20 mg/kg i.v., tail clip, 4 hours): 25% | Survival (%) 24 hours (FVIII−/− (E17) mice; FVIII−/− mice, Exp 1, 20 mg/kg i.v., tail clip, 24 hours): 6% | Survival (%) 2 hours (FVIII−/− (E17) mice; FVIII−/− mice, Exp 2 (repeat), 20 mg/kg i.v., tail clip, 2 hours): 63% | Survival (%) 3 hours (FVIII−/− (E17) mice; FVIII−/− mice, Exp 2 (repeat), 20 mg/kg i.v., tail clip): 38% | Survival (%) 4 hours (FVIII−/− (E17) mice; FVIII−/− mice, Exp 2 (repeat), 20 mg/kg i.v., tail clip, 4 hours): 31% | Survival (%) 24 hours (FVIII−/− (E17) mice; FVIII−/− mice, Exp 2 (repeat), 20 mg/kg i.v., tail clip, 24 hours): 13% | Total blood loss (% of Vehicle) (FVIII−/− (E17) mice; FVIII−/− mice, female, 20 mg/kg i.p., 0.5 cm tail clip): 72 % of Vehicle | Survival 2 hours (%) (FVIII−/− (E17) mice; FVIII−/− mice, female, 20 mg/kg i.p., 0.5 cm tail clip, 2 hours): 75% | Survival 4 hours (%) (FVIII−/− (E17) mice; FVIII−/− mice, female, 20 mg/kg i.p., 0.5 cm tail clip, 4 hours): 25% | Survival 24 hours (%) (FVIII−/− (E17) mice; FVIII−/− mice, female, 20 mg/kg i.p., 0.5 cm tail clip, 24 hours): 25% | Survival 2 hours (%) (FVIII−/− (E17) mice; FVIII−/− mice, female, 20 mg/kg i.v., 1 cm tail clip, 2 hours): 80% | Survival 24 hours (%) (FVIII−/− (E17) mice; FVIII−/− mice, female, 20 mg/kg i.v., 1 cm tail clip, 24 hours): 10% | Total blood loss (% of Vehicle) (FVIII−/− (E17) mice; FVIII−/− mice, male, 20 mg/kg i.p., 0.5 cm tail clip): 83 % of Vehicle | Survival 2 hours (%) (FVIII−/− (E17) mice; FVIII−/− mice, male, 20 mg/kg i.p., 0.5 cm tail clip, 2 hours): 38% | Survival 4 hours (%) (FVIII−/− (E17) mice; FVIII−/− mice, male, 20 mg/kg i.p., 0.5 cm tail clip, 4 hours): 25% | Survival 24 hours (%) (FVIII−/− (E17) mice; FVIII−/− mice, male, 20 mg/kg i.p., 0.5 cm tail clip, 24 hours): 25% | Survival 2 hours (%) (FVIII−/− (E17) mice; FVIII−/− mice, male, 20 mg/kg i.v., 1 cm tail clip, 2 hours): 20% | Survival 24 hours (%) (FVIII−/− (E17) mice; FVIII−/− mice, male, 20 mg/kg i.v., 1 cm tail clip, 24 hours): 0% | Compensation for lack of FVIII (reducing blood loss, increasing survival following tail clip) (FVIII−/− (E17) mice; conclusion): at least partially compensate for the lack of FVIII | Gender effect on efficacy (FVIII−/− (E17) mice; i.v., tail clip 1 cm): more effective in female than male mice | Difference in survival curves vs vehicle (FVIII−/− (E17) mice; male mice, 20 mg/kg i.p., 0.5 cm tail clip): no statistically significant difference | Bleeding and survival in two independently performed experiments (FVIII−/− (E17) mice; repeat experiment): bleed less and survive longer | Activity in the tail clip assay (FVIII−/− (E17) mice; summary): possessing activity
